Values after ≈ are worked out from the molar mass of the structure shown. Active and inactive are the calls of the source. No cut-off for these calls is given here.
Tests used:
Helicoverpa armigera [1] = test: Antifeedant activity against third-instar larval stage of Helicoverpa armigera fed with artificial diet containing compound assessed as efficiency index of ingested food at 5.38 mg/ml after 3 days (reference value: 52%); assay type: functional
Spodoptera litura [2] = test: Antifeedant activity against third-instar larval stage of Spodoptera litura fed with artificial diet containing compound assessed as relative growth rate at 4.38 mg/ml after 3 days (reference value: 1.37 +/- 0.12 mg/mg/day); assay type: functional
Spodoptera litura [3] = test: Antifeedant activity against third-instar larval stage of Spodoptera litura fed with artificial diet containing compound assessed as relative consumption rate at 4.38 mg/ml after 3 days (reference value: 2.13 +/- 0.18 mg/mg/day); assay type: functional
Spodoptera litura [4] = test: Insecticidal activity against second-instar larval stage of Spodoptera litura fed with artificial diet containing compound assessed as growth inhibition after 7 days; assay type: functional, organism-based; settings: for EC50: 168 h
Spodoptera litura [5] = test: Insecticidal activity against second-instar larval stage of Spodoptera litura assessed as increase in mortality applied as spray at 1 to 10 mg/ml after 72 hr; assay type: functional, organism-based
Helicoverpa armigera [6] = test: Insecticidal activity against second-instar larval stage of Helicoverpa armigera assessed as increase in mortality applied as spray at 1 to 10 mg/ml after 72 hr; assay type: functional, organism-based
Helicoverpa armigera [7] = test: Insecticidal activity against second-instar larval stage of Helicoverpa armigera fed with artificial diet containing compound assessed as mortality after 7 days; assay type: functional; settings: 168 h
Spodoptera litura [8] = test: Insecticidal activity against second-instar larval stage of Spodoptera litura fed with artificial diet containing compound assessed as mortality after 7 days; assay type: functional; settings: 168 h
Helicoverpa armigera [9] = test: Insecticidal activity against second-instar larval stage of Helicoverpa armigera fed with artificial diet containing compound assessed as growth inhibition after 7 days; assay type: functional, organism-based; settings: for EC50: 168 h
Helicoverpa armigera [10] = test: Antifeedant activity against third-instar larval stage of Helicoverpa armigera fed with artificial diet containing compound assessed as relative growth rate at 5.38 mg/ml after 3 days (reference value: 0.97 +/- 0.13 mg/mg/day); assay type: functional
Helicoverpa armigera [11] = test: Antifeedant activity against third-instar larval stage of Helicoverpa armigera fed with artificial diet containing compound assessed as relative consumption rate at 5.38 mg/ml after 3 days (reference value: 1.88 +/- 0.14 mg/mg/day); assay type: functional
Spodoptera litura [12] = test: Antifeedant activity against third-instar larval stage of Spodoptera litura fed with artificial diet containing compound assessed as efficiency index of ingested food at 4.38 mg/ml after 3 days (reference value: 64.5%); assay type: functional
Helicoverpa armigera [13] = test: Antifeedant activity against third-instar larval stage of Helicoverpa armigera fed with artificial diet containing compound assessed as efficiency index of ingested food at 7.15 mg/ml after 3 days (reference value: 52%); assay type: functional
Spodoptera litura [14] = test: Antifeedant activity against third-instar larval stage of Spodoptera litura fed with artificial diet containing compound assessed as relative consumption rate at 6.25 mg/ml after 3 days (reference value: 2.13 +/- 0.18 mg/mg/day); assay type: functional
Spodoptera litura [15] = test: Antifeedant activity against third-instar larval stage of Spodoptera litura fed with artificial diet containing compound assessed as efficiency index of ingested food at 6.25 mg/ml after 3 days (reference value: 64.5%); assay type: functional
Spodoptera litura [16] = test: Antifeedant activity against third-instar larval stage of Spodoptera litura fed with artificial diet containing compound assessed as relative growth rate at 6.25 mg/ml after 3 days (reference value: 1.37 +/- 0.12 mg/mg/day); assay type: functional
Helicoverpa armigera [17] = test: Antifeedant activity against third-instar larval stage of Helicoverpa armigera fed with artificial diet containing compound assessed as relative growth rate at 7.15 mg/ml after 3 days (reference value: 0.97 +/- 0.13 mg/mg/day); assay type: functional
Helicoverpa armigera [18] = test: Antifeedant activity against third-instar larval stage of Helicoverpa armigera fed with artificial diet containing compound assessed as relative consumption rate at 7.15 mg/ml after 3 days (reference value: 1.88 +/- 0.14 mg/mg/day); assay type: functional
Helicoverpa armigera [19] = test: Antifeedant activity against third-instar larval stage of Helicoverpa armigera fed with artificial diet containing compound assessed as efficiency index of ingested food at 9.82 mg/ml after 3 days (reference value: 52%); assay type: functional
Spodoptera litura [20] = test: Antifeedant activity against third-instar larval stage of Spodoptera litura fed with artificial diet containing compound assessed as relative consumption rate at 8.32 mg/ml after 3 days (reference value: 2.13 +/- 0.18 mg/mg/day); assay type: functional
Spodoptera litura [21] = test: Antifeedant activity against third-instar larval stage of Spodoptera litura fed with artificial diet containing compound assessed as efficiency index of ingested food at 8.32 mg/ml after 3 days (reference value: 64.5%); assay type: functional
Spodoptera litura [22] = test: Antifeedant activity against third-instar larval stage of Spodoptera litura fed with artificial diet containing compound assessed as relative growth rate at 8.32 mg/ml after 3 days (reference value: 1.37 +/- 0.12 mg/mg/day); assay type: functional
Helicoverpa armigera [23] = test: Antifeedant activity against third-instar larval stage of Helicoverpa armigera fed with artificial diet containing compound assessed as relative growth rate at 9.82 mg/ml after 3 days (reference value: 0.97 +/- 0.13 mg/mg/day); assay type: functional
Helicoverpa armigera [24] = test: Antifeedant activity against third-instar larval stage of Helicoverpa armigera fed with artificial diet containing compound assessed as relative consumption rate at 9.82 mg/ml after 3 days (reference value: 1.88 +/- 0.14 mg/mg/day); assay type: functional

In the case of `CCCC(=O)OCCOCCOCCOC(=O)CCC` [TRIETHYLENE GLYCOL DIBUTANOATE], the ECI (Helicoverpa armigera [1]) is reported as 32.7%, the Activity (Spodoptera litura [2]) is reported as 0.77 mg/mg/day and the Activity (Spodoptera litura [3]) is reported as 2.06 mg/mg/day. The “growth inhibition (GI)” value (Spodoptera litura [4]) was “Dose-dependent effect”, the EC50 (Spodoptera litura [4]) was 1640 µg/mL (≈ 5.65 mM) and the Activity (Spodoptera litura [5]) was “Active”. The Activity (Helicoverpa armigera [6]) was “Active”, the LC50 (Helicoverpa armigera [7]) was 2000 µg/mL (≈ 6.89 mM) and the LC50 (Spodoptera litura [8]) was 2000 µg/mL (≈ 6.89 mM). For the same compound, the “growth inhibition (GI)” value (Helicoverpa armigera [9]) was “Dose-dependent effect”, the EC50 (Helicoverpa armigera [9]) was 2120 µg/mL (≈ 7.3 mM) and the Activity (Helicoverpa armigera [10]) was 0.54 mg/mg/day. It also gave an Activity (Helicoverpa armigera [11]) of 1.67 mg/mg/day and an ECI (Spodoptera litura [12]) of 61%.

In the case of `CCCCCCCC(=O)OCC(C)OC(=O)CCCCCCC` (stereo not drawn), the ECI (Helicoverpa armigera [13]) is reported as 37.9%, the Activity (Spodoptera litura [14]) is reported as 2.21 mg/mg/day and the ECI (Spodoptera litura [15]) is reported as 18%. The “growth inhibition (GI)” value (Spodoptera litura [4]) was “Dose-dependent effect”, the EC50 (Spodoptera litura [4]) was 3820 µg/mL (≈ 11.6 mM) and the Activity (Spodoptera litura [16]) was 0.88 mg/mg/day. For the same compound, the LC50 (Helicoverpa armigera [7]) was 2000 µg/mL (≈ 6.09 mM), the LC50 (Spodoptera litura [8]) was 2000 µg/mL (≈ 6.09 mM) and the “growth inhibition (GI)” value (Helicoverpa armigera [9]) was “Dose-dependent effect”. For the same compound, the EC50 (Helicoverpa armigera [9]) was 4380 µg/mL (≈ 13.3 mM), the Activity (Helicoverpa armigera [17]) was 0.7 mg/mg/day and the Activity (Helicoverpa armigera [18]) was 1.86 mg/mg/day.

In the case of `CCCCC(=O)OCCCCCOC(=O)CCCC` [PENTANE-1,5-DIPENTANOATE], the ECI (Helicoverpa armigera [19]) is reported as 37.2%, the Activity (Spodoptera litura [20]) is reported as 2.02 mg/mg/day and the ECI (Spodoptera litura [21]) is reported as 44%. The “growth inhibition (GI)” value (Spodoptera litura [4]) was “Dose-dependent effect”, the EC50 (Spodoptera litura [4]) was 5010 µg/mL (≈ 18.4 mM) and the Activity (Spodoptera litura [22]) was 0.94 mg/mg/day. The LC50 (Helicoverpa armigera [7]) was 2000 µg/mL (≈ 7.34 mM), the LC50 (Spodoptera litura [8]) was 2000 µg/mL (≈ 7.34 mM) and the “growth inhibition (GI)” value (Helicoverpa armigera [9]) was “Dose-dependent effect”. For the same compound, the EC50 (Helicoverpa armigera [9]) was 5880 µg/mL (≈ 21.6 mM), the Activity (Helicoverpa armigera [23]) was 0.66 mg/mg/day and the Activity (Helicoverpa armigera [24]) was 1.79 mg/mg/day.

From ChEMBL document CHEMBL3045652, “Biorational glycol diesters as dietary toxins versus bioefficacy of sucrose octanoate against lepidopteran larvae” (Ind Crops Prod, 2012)
